In patent US20050107386A1, “Methods of treating diseases and disorders by targeting multiple kinases” (priority 2003, published 2005):

Tested on: HCT-116 cells
Experiment: SCID mouse/HCT-116 xenograft model
Details: for % Tumor Growth Inhibition: day 28; for TGD (500 mm^3): days to reach 500 mm^3; for TGD (1000 mm^3): days to reach 1000 mm^3

Structure (SMILES): CCc1c2c(nc3ccc(OC(=O)N4CCC(N5CCCCC5)CC4)cc13)-c1cc3c(c(=O)n1C2)COC(=O)[C@]3(O)CC.Cl [Camptosar, reference compound]
- TGD (days to reach 1000 mm^3) (Table 3, i.p. 25 mg/kg q4d): >12 days
- % Tumor Growth Inhibition (Table 3, i.p. 25 mg/kg q4d): 95.4%
- % Tumor Growth Inhibition (Table 5, i.p. 2.5 mg/kg q4d): 66%
- TGD (500 mm^3) (Table 5, i.p. 2.5 mg/kg q4d): >6 days
- TGD (1000 mm^3) (Table 5, i.p. 2.5 mg/kg q4d): >10 days
- % Tumor Growth Inhibition (Table 5, i.p. 10 mg/kg q4d): 90%
- TGD (500 mm^3) (Table 5, i.p. 10 mg/kg q4d): >13 days
- TGD (1000 mm^3) (Table 5, i.p. 10 mg/kg q4d): >10 days
